One may read the pIC50 as the negative decadic logarithm of the IC50, by convention in mol/L. A higher pIC50 goes with a small IC50.

pIC50: −log10 of the molar value. Bounds are passed on as bounds.

IC50 data for 90 molecules are collected here from the supplement of paper PMC3493320.

The test system of the test is NCI-H295R. Put plainly: IC50 (antiproliferative, ATP content). The conditions noted are these: 48 h. The essentials:
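Compounds were pin-transferred at 8 final concentrations between 0.6 nM and 46 µM onto adrenocortical carcinoma cells (1500 per well, 1536-well plates) that had been cultured overnight in serum-free DMEM with ITS. Plates then stood 48 h at 37 °C, 5% CO2, and ATP was detected by CellTiter-Glo luminescence. IC50 was derived from logistic fits of normalised signal, and compounds giving no concentration response were noted as above the top dose.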
For the molecule `CC[N+](C)(C)c1cccc(O)c1.[Cl-]`, the pIC50 is under 4.34.

The molecule `CO[C@]12C[C@@H](COC(=O)c3cncc(Br)c3)CN(C)[C@@H]1Cc1cn(C)c3cccc2c13` had a pIC50 of under 4.34.

For the molecule `Cc1ncc(CO)c(C=O)c1O`, the negative-log IC50 (pIC50) is under 4.34.

In the case of `Cc1nc[nH]c1CN1CCc2c(c3ccccc3n2C)C1=O.Cl`, the pIC50 was under 4.34.

In turn, `O=[C@](O)[C@H](CC1)NC1=O` showed a pIC50 of under 4.34.

The molecule `O=S(=O)([O-])CCS.[Na+]` showed a pIC50 of under 4.34.

Turning to `C[C@H](N)[C@H](O)c1ccc(O)c(O)c1`, the negative logarithm of the IC50 (pIC50) is under 4.34.

In the case of `CCCC(=O)O[C@]1(C(=O)CCl)[C@@H](C)C[C@H]2[C@@H]3CCC4=CC(=O)C=C[C@]4(C)[C@@]3(F)C(=O)C[C@@]21C`, the pIC50 is under 4.34.

Molecule `[O-][N+](=Nc1ccccc1)c1ccccc1` showed a negative-log IC50 (pIC50) of under 4.34.

`Cl.C/C(C)=N\Nc2c(cnc1c2cnn1CC)C(=O)OCC`: the pIC50 was under 4.34.

Turning to `CC(=O)Nc1cc([As](=O)(O)O)ccc1O`, the pIC50 is under 4.34.

Take `CC(N)C12CC3CC(CC(C3)C1)C2.Cl` (stereo not given): the pIC50 was under 4.34.

Turning to `CCC1Nc2cc(Cl)c(S(N)(=O)=O)cc2S(=O)(=O)N1` (stereo not given), the pIC50 was under 4.34.

In turn, `C\C1=C\N(C(=O)NC1=O)[C@H]2\C=C/[C@@H](CO)O2` showed a negative-log IC50 (pIC50) of under 4.34.

The molecule `CNNCc1ccc(C(=O)NC(C)C)cc1.Cl` gave a pIC50 of under 4.34.

Molecule `COc1ccc(Cl)cc1C(=O)NCCc1ccc(S(=O)(=O)NC(=O)NC2CCCCC2)cc1` gave a pIC50 of under 4.34.

With `CCCCCCCCC(=O)NCc1ccc(O)c(OC)c1`, the pIC50 is under 4.34.

On to `O=C(CCCN1CCC(n2c(=O)[nH]c3ccccc32)CC1)c1ccc(F)cc1`, for which the pIC50 was under 4.34.

Consider `O=C1c2ccccc2C(=O)C1c1ccc(Br)cc1`, for which the pIC50 was under 4.34.

The molecule `CC(=O)N=c1sc(S(N)(=O)=O)nn1C` showed a pIC50 of under 4.34.

Regarding `CCN(CC)CCOC[C@H]1O[C@@H](O)[C@H](OCCN(CC)CC)[C@@H](O)[C@@H]1O`, the pIC50 is under 4.34.

In the case of `CC(C)NC(=N)NC(=N)Nc1ccc(Cl)cc1.Cl`, the pIC50 is under 4.34.

Molecule `CCN(CC)CC(=O)Nc1c(C)cccc1C` gave a pIC50 of under 4.34.

The molecule `O=C(CCl)c1ccc(Oc2ccc(C(=O)CCl)cc2)cc1` showed a pIC50 of under 4.34.

Consider `O=C(O)c1cc(O)nc(O)n1`, for which the pIC50 is under 4.34.

In turn, `CCN(CC)C(=O)N[C@H]1C[C@@H]2c3cccc4[nH]cc(c34)C[C@H]2N(C)C1` gave a pIC50 of under 4.34.

Turning to `CCOC(C)OCC`, the pIC50 was under 4.34.

`C=O` showed a pIC50 of under 4.34.

For the molecule `CCCCC(CC)COC(=O)c1ccc(N(C)C)cc1` (stereo not given), the pIC50 is under 4.34.

Molecule `CCCC(=O)Nc1ncnc2c1ncn2[C@@H]1O[C@@H]2COP(=O)(O)O[C@H]2[C@H]1OC(=O)CCC` had a pIC50 of under 4.34.

Molecule `O=C3[C@@H]4[C@]([C@](CC6)(C)[C@H]([C@@]5=COC=C5)O3)(O4)[C@@]2(C)[C@@]6([H])[C@@]1(CO7)[C@H](CC7=O)OC(C)(C)[C@@]([H])1CC2=O` had a pIC50 of under 4.34.

For `CCCCCCCCCCCCCCCC(=O)NCCO`, the pIC50 is under 4.34.

Take `CCCCC1(COC(=O)CCC(=O)O)C(=O)N(c2ccccc2)N(c2ccccc2)C1=O`: the pIC50 was under 4.34.

Consider `CC(C)c1nc(N(C)S(C)(=O)=O)nc(-c2ccc(F)cc2)c1/C=C/C(O)CC(O)CC(=O)[O-].CC(C)c1nc(N(C)S(C)(=O)=O)nc(-c2ccc(F)cc2)c1/C=C/C(O)CC(O)CC(=O)[O-].[Ca+2]` (stereo not given), for which the pIC50 was under 4.34.

As for `O=C1CCO1`, the pIC50 is under 4.34.

With `NNC(=O)CP(=O)(c1ccccc1)c1ccccc1`, the pIC50 is under 4.34.

The molecule `[C@@]2\1(\C(=C/C(/C=C/1)=O)CC[C@@H]4[C@@H]2CC[C@@]3(OC(=O)CC[C@H]34)C)C` showed a pIC50 of under 4.34.

`Cl[C@]1([C@](C)2C=C3)[C@@H](O)C[C@@]([C@]([C@@](CO)=O)(O)[C@H]4C)(C)[C@](C4)([H])[C@@]([H])1CCC2=CC3=O` gave a pIC50 of under 4.34.

Regarding `CCOc1cc(OCC)c(C(=O)CCC(=O)O)cc1OCC`, the pIC50 is under 4.34.

Take `[NH2][Pt]1([NH2])[O]CC(=O)[O]1`: the pIC50 is under 4.34.

`Nc1ncn([C@H]2C[C@H](O)[C@@H](CO)O2)c(=O)n1`: the pIC50 was under 4.34.

`CCCCCCCCCCCCCCCCCCCCCCO` showed a pIC50 of under 4.34.

In turn, `O=C2C=1/N=C\NC=1N(C)C(=O)N2C` had a pIC50 of under 4.34.

Take `CC/C=C\C/C=C\C/C=C\C/C=C\C/C=C\CCCC(=O)O`: the negative logarithm of the IC50 (pIC50) is under 4.34.

In the case of `NS(=O)(=O)c1cc(C(=O)O)c(NCc2ccco2)cc1Cl`, the pIC50 is under 4.34.

Molecule `CC(=O)OCC(=O)C1CCC2C3CCC4CC(O)CCC4(C)C3C(=O)CC12C` (stereo not given) gave a pIC50 of under 4.34.

Turning to `CC(O)CCCCn1c(=O)c2c(ncn2C)n(C)c1=O` (stereo not given), the pIC50 is under 4.34.

Molecule `C[C@@H](O)[C@H]1C(=O)N2C(C(=O)O)=C(S[C@@H]3CN[C@H](CNS(N)(=O)=O)C3)[C@H](C)[C@H]12` gave a pIC50 of under 4.34.

With `COc1cc(Cc2cnc(N)nc2N)cc(OC)c1OC`, the pIC50 is under 4.34.

For the molecule `CCCCOC(=O)CC(CC(=O)OCCCC)(OC(C)=O)C(=O)OCCCC`, the pIC50 was under 4.34.

As to `CCCCC(CC)CCC(CC(C)C)OS(=O)(=O)[O-].[Na+]` (stereo not given), the pIC50 is under 4.34.

Molecule `CCc1ccc(CCOc2ccc(CC3SC(=O)NC3=O)cc2)nc1.Cl` (stereo not given) gave a pIC50 of under 4.34.

With `O=C([O-])COc1nn(Cc2ccccc2)c2ccccc12.[Na+]`, the pIC50 is under 4.34.

Molecule `C=CCN(C1=NCCN1)c1c(Cl)cccc1Cl` showed a pIC50 of under 4.34.

For `F[C@]1([C@](C)2C=C3)[C@@H](O)C[C@@]([C@]([C@@](CO)=O)(O)[C@H]4C)(C)[C@](C4)([H])[C@@]([H])1CCC2=CC3=O`, the pIC50 was under 4.34.

In turn, `CCCCC(CC)CN1CN(CC(CC)CCCC)CC(C)(N)C1` (stereo not given) showed a pIC50 of under 4.34.

Molecule `Cn1cc(NC(=O)c2cc(NC(=O)c3cc(NC=O)cn3C)cn2C)cc1C(=O)NCCC(=N)N` gave a pIC50 of under 4.34.

`O=C(O)C(=O)O.c1ccc2cc(C3=NCCN3)ccc2c1` had a pIC50 of under 4.34.

As to `CC(=O)OCC(=O)[C@@]1(O)CC[C@H]2[C@@H]3CCC4=CC(=O)CC[C@]4(C)C3=CC[C@@]21C`, the pIC50 was under 4.34.

In the case of `CCC(=O)O[C@]1(C(=O)SCF)[C@H](C)C[C@H]2C3C[C@H](F)C4=CC(=O)C=C[C@]4(C)[C@@]3(F)[C@@H](O)C[C@@]21C` (stereo not given in full), the pIC50 is under 4.34.

In the case of `Nc1ccncc1N`, the pIC50 was under 4.34.

`NS(=O)(=O)c1cc2c(cc1Cl)NC(Cc1ccccc1)NS2(=O)=O` (stereo not given) gave a pIC50 of under 4.34.

Consider `CC(=O)Nc1ccc(CC(=O)O)cc1`, for which the pIC50 is under 4.34.

`CCOP(=O)(OCC)OC(=CCl)c1ccc(Cl)cc1Cl` gave a negative-log IC50 (pIC50) of under 4.34.

Molecule `CC[C@H]1OC(=O)[C@H](C)[C@@H](O[C@H]2C[C@@](C)(OC)[C@@H](O)[C@H](C)O2)[C@H](C)[C@@H](O[C@@H]2O[C@H](C)C[C@H](N(C)C)[C@H]2O)[C@](C)(O)C[C@@H](C)CN(C)[C@H](C)[C@@H](O)[C@]1(C)O` had a pIC50 of under 4.34.

Turning to `C[C@H]1[C@H](NC(=O)C(=NOC(C)(C)C(=O)O)c2csc(N)n2)C(=O)N1S(=O)(=O)O`, the pIC50 is under 4.34.

In the case of `CN1CCN(C(c2ccccc2)c2ccccc2)CC1.Cl.Cl`, the pIC50 is under 4.34.

Consider `CC(=O)Oc1cccc(C)c1`, for which the negative-log IC50 (pIC50) is under 4.34.

`BrC2=CC=C(C=C2)[C@@H]([C@@]1=CC=CC=N1)CCN(C)C.O=C(O)/C=C\C(O)=O`: the pIC50 was under 4.34.

In turn, `Cn1nnnc1SCC1=C(C(=O)[O-])N2C(=O)[C@@H](NC(=O)[C@H](O)c3ccccc3)[C@H]2SC1.[Na+]` gave a pIC50 of under 4.34.

Turning to `[O-][n+]1cc[n+]([O-])c2ccccc21`, the pIC50 was under 4.34.

Take `C[C@@H](O)[C@H]1C(=O)N2C(C(=O)O)=C(S[C@@H]3CN[C@H](C(=O)N(C)C)C3)[C@H](C)[C@H]12`: the pIC50 is under 4.34.

The molecule `Cl.c1ccc(CN(CC2=NCCN2)c2ccccc2)cc1` showed a pIC50 of under 4.34.

Regarding `NC[C@@H](C1)[C@]1([C@@]2=CC=CC=C2)C(N(CC)CC)=O.Cl`, the negative-log IC50 (pIC50) is under 4.34.

Take `O=C1CN=C(c2ccccc2)c2cc([N+](=O)[O-])ccc2N1`: the pIC50 was under 4.34.

In turn, `Clc1ccc2c(c1)C(c1ccccc1)=NCc1nncn1-2` gave a pIC50 of under 4.34.

`Cc1ccc(C(C)C)c(O)c1` gave a pIC50 of under 4.34.

Consider `CCCCCCCCCCCC(=O)N(CCO)CCO`, for which the pIC50 is under 4.34.

In turn, `CC(C)NCC(O)c1ccccc1Cl.Cl` (stereo not given) gave a pIC50 of under 4.34.

As for `O=c1cc[nH]c(=S)[nH]1`, the pIC50 was under 4.34.

As to `O=C1CCC(c2ccc(-n3ccnc3)cc2)=NN1`, the pIC50 is under 4.34.

As to `COc1ccc2c(=O)c(C)c(-c3ccccc3)oc2c1CN(C)C.Cl`, the pIC50 is under 4.34.

For the molecule `CC(C)[N+](C)(CCC(C(N)=O)(c1ccccc1)c1ccccc1)C(C)C`, the pIC50 is under 4.34.

On to `CC1=C(/C=C/C(C)=C/C=C/C(C)=C/C(=O)O)C(C)(C)CCC1`, for which the pIC50 is under 4.34.

With `CC12CCC(C1)C(C)(C)C2=O` (stereo not given), the pIC50 is under 4.34.

For `[H][C@]1(CC3)[C@]([H])4[C@]([C@@H]([C@@](C)=O)CC4)(C)CC[C@@]([H])1[C@]2(C)[C@]3([H])C[C@H](O)CC2`, the pIC50 was under 4.34.

Consider `OCC(CO)N[C@H]1C[C@](O)(CO)[C@@H](O)[C@H](O)[C@H]1O`, for which the pIC50 was under 4.34.

The molecule `OC1=C(C=C(/C=C(C#N)/C#N)C=C1)O` gave a pIC50 of under 4.34.

As to `CN(C)CCN(Cc1ccccc1)c1ccccn1.O=C(O)CC(O)(CC(=O)O)C(=O)O`, the pIC50 was under 4.34.

`Cc1cnc(C(=O)NCCc2ccc(S(=O)(=O)NC(=O)NC3CCCCC3)cc2)cn1` gave a pIC50 of under 4.34.
